The record followed here is patent US8536202B2, “Triazole-substituted anthranilamides as pesticides” (Bayer Cropscience AG, priority 2010, dated 2013).

Like-named read-outs stand apart in the source and are kept apart here.

Series [1] is described as follows: log P determination by HPLC on reversed-phase columns (EEC Directive 79/831 Annex V.A8). In kind it is physicochemical. To be noted: pH 2.7. An outline of the steps:
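Calibration used unbranched alkan-2-ones of 3 to 16 carbons with known log P, values interpolated linearly from retention times between neighbouring standards. Acidic-range LC-MS run at pH 2.7, eluents aqueous and acetonitrile formic acid 0.1%, linear gradient 10% to 95% acetonitrile.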

Series [2] relates to caterpillars of the armyworm (Spodoptera frugiperda). Description: Spodoptera frugiperda test (SPODFR spray treatment). In kind it is in vivo. To be noted: 168 h, read-out: activity in %. An outline of the steps:
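Percent caterpillar mortality read 7 days after infestation (0% none killed, 100% all killed). Treatment was a spray of the acetone/DMF/emulsifier formulation, water-diluted to test concentration, onto Zea mays leaf discs, allowed to dry before larvae were added.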

Series [3] relates to larvae of the mustard beetle (Phaedon cochleariae). Description: Phaedon test (PHAECO spray treatment). It counts as in vivo. To be noted: 168 h, read-out: activity in %. A digest of the protocol: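 Mortality of mustard beetle larvae, expressed as percent killed (100% all, 0% none), assessed 7 days after spraying. Spray liquor made from compound in acetone plus dimethylformamide with alkylaryl polyglycol ether, diluted in emulsifier-containing water to the desired concentration.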

Series [4] relates to green peach aphid (Myzus persicae). Kind of series: Myzus test (MYZUPE spray treatment), Use Example 4. It counts as in vivo. To be noted: 144 h; for pest or weed control at 100 g/ha: read-out: activity in %. An outline of the steps: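 Compound was formulated in acetone/dimethylformamide with alkylaryl polyglycol ether emulsifier and diluted in emulsifier-containing water. It was sprayed onto Chinese cabbage leaf discs infested with all stages of Myzus persicae. Mortality (%) was scored after 6 days, where 100% means all aphids killed.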

Setting [5] is: HPLC on reversed-phase columns (C 18), EEC Directive 79/831 Annex V.A8, read-out: logP.
The mark [6] stands for this setting: reversed-phase C18 HPLC column, HPLC on reversed-phase columns (C 18), EEC Directive 79/831 Annex V.A8, read-out: logP.

In series [1], `Cc1cc(Cl)cc(C(=O)NC(C)C2CC2)c1NC(=O)c1cc(Cn2cc(C(F)(F)C(F)(F)F)nn2)nn1-c1ncccc1Cl` (stereo not shown) [Example 300] registered a chromatographic logP of 3.79. The pest or weed control at 100 g/ha in series [2] (100 g/ha, after 7 days) is 100%; in series [3] (100 g/ha, after 7 days), 100%; in series [4] (100 g/ha, after 6 days), 90%.

On to `CNC(=O)c1cc(Cl)cc(C)c1NC(=O)c1cc(Cn2cc(C(F)(F)C(F)(F)C(F)(F)F)nn2)nn1-c1ncccc1Cl` [Example 328], for which the chromatographic logP in series [1] (setting [5]) stood at 3.38. The pest or weed control at 100 g/ha in series [2], in series [3] and in series [4] was 100% each time.

In the case of `CCNC(=O)c1cc(Cl)cc(C)c1NC(=O)c1cc(Cn2ncc(C(F)(F)C(F)(F)F)n2)nn1-c1ncccc1Cl` [Example 350], the chromatographic logP in series [1] came out at 3.66. Besides, the pest or weed control at 100 g/ha in series [2] (100 g/ha, after 7 days) was determined as 100%; in series [3] (100 g/ha, after 7 days), 100%; in series [4] (100 g/ha, after 6 days) it was 80%.

For the compound `CNC(=O)c1cc(Cl)cc(Cl)c1NC(=O)c1cc(Cn2ncc(C(F)(F)F)n2)nn1-c1ncccc1Cl` [Example 146], in series [1], the chromatographic logP amounted to 2.98. For the same compound, the pest or weed control at 100 g/ha turned out to be 100% in series [2] (100 g/ha, after 7 days); 100% in series [3] (100 g/ha, after 7 days); 100% in series [4] (100 g/ha, after 6 days).

For `CSC[C@H](C)NC(=O)c1cc(I)cc(C)c1NC(=O)c1cc(Cn2ncc(C(F)(F)C(F)(F)C(F)(F)F)n2)nn1-c1ncccc1Cl` [Example 373], the chromatographic logP in series [1] (setting [5]) was found to be 4.65. The pest or weed control at 100 g/ha in series [2], in series [3] and in series [4] was 100% in each case.

In the case of `CCNC(=O)c1cc(C#N)cc(C)c1NC(=O)c1cc(Cn2ncc(C(F)(F)F)n2)nn1-c1ncccc1Br` [Example 12], in series [1] (setting [6]), the chromatographic logP is 2.53. Moreover, the pest or weed control at 100 g/ha worked out at 100% in series [2] (100 g/ha, after 7 days); 100% in series [3] (100 g/ha, after 7 days); 100% in series [4] (100 g/ha, after 6 days).

Regarding `CSC[C@H](C)NC(=O)c1cc(Cl)cc(C)c1NC(=O)c1cc(Cn2cc(C(F)(F)C(F)(F)C(F)(F)F)nn2)nn1-c1ncccc1Cl` [Example 324], in series [1] (setting [5]), the chromatographic logP came to 3.99. Further, the pest or weed control at 100 g/ha in series [2], in series [3] and in series [4] was 100% in each case.

As to `CSC[C@H](C)NC(=O)c1cc(C#N)cc(C)c1NC(=O)c1cc(Cn2nc(C(F)(F)F)c(C(F)(F)F)n2)nn1-c1ncccc1Cl` [Example 400], the chromatographic logP in series [1] (setting [6]) is 4.05. Moreover, the pest or weed control at 100 g/ha in series [2] (100 g/ha, after 7 days) turned out to be 100%; in series [3] (100 g/ha, after 7 days) it was 100%. The compound further had a pest or weed control at 500 g/ha in series [4] (500 g/ha, after 6 days) of 100%.

Compound `Cc1cc(C#N)cc(C(=O)NC(C)(C)C)c1NC(=O)c1cc(Cn2cc(-c3ccc(Cl)cc3)nn2)nn1-c1ncccc1Cl` [Example 54] displayed a chromatographic logP in series [1] of 3.54. The pest or weed control at 100 g/ha in series [2] (100 g/ha, after 7 days) worked out at 100%; in series [3] (100 g/ha, after 7 days), 100%; in series [4] (100 g/ha, after 6 days), 80%.

`CCNC(=O)c1cc(C#N)cc(C)c1NC(=O)c1cc(Cn2ncc(C(F)(F)F)n2)nn1-c1ccccc1Cl` [Example 288]: the chromatographic logP in series [1] (setting [6]) came to 3.3. Also, the pest or weed control at 100 g/ha was determined as 100% in series [2] (100 g/ha, after 7 days); 100% in series [3] (100 g/ha, after 7 days); 100% in series [4] (100 g/ha, after 6 days).

Consider `Cc1cc(C#N)cc(C(=O)NC2CC2)c1NC(=O)c1cc(Cn2cc(C(F)(C(F)(F)F)C(F)(F)F)nn2)nn1-c1ncccc1Cl` [Example 224], for which the chromatographic logP in series [1] (setting [6]) was found to be 3.24. In addition, the pest or weed control at 100 g/ha in series [2] (100 g/ha, after 7 days) stood at 100%; in series [3] (100 g/ha, after 7 days), 100%; in series [4] (100 g/ha, after 6 days), 80%.

In series [1], `CC(C)NC(=O)c1cc(Cl)cc(Cl)c1NC(=O)c1cc(Cn2ncc(C(F)(F)F)n2)nn1-c1ncccc1Cl` [Example 150] showed a chromatographic logP of 3.41. Moreover, the pest or weed control at 100 g/ha in series [2] (100 g/ha, after 7 days) came to 100%; in series [3] (100 g/ha, after 7 days), 100%; in series [4] (100 g/ha, after 6 days), 90%.

For `Cc1cc(Cl)cc(C(=O)NCC2CC2)c1NC(=O)c1cc(Cn2cc(C(F)(F)C(F)(F)C(F)(F)F)nn2)nn1-c1ncccc1Cl` [Example 325], the chromatographic logP in series [1] (setting [5]) was found to be 3.9. In addition, the pest or weed control at 100 g/ha in series [2], in series [3] and in series [4] was 100% in each case.

`CSC[C@H](C)NC(=O)c1cc(Cl)cc(C)c1NC(=O)c1cc(Cn2ncc(C(F)(F)F)n2)nn1-c1ncccc1Cl` [Example 144] gave a chromatographic logP in series [1] of 3.74. In addition, the pest or weed control at 100 g/ha was 100% in series [2] (100 g/ha, after 7 days); 100% in series [3] (100 g/ha, after 7 days); 100% in series [4] (100 g/ha, after 6 days).

As to `Cc1cc(C#N)cc(C(=O)NCC2CC2)c1NC(=O)c1cc(Cn2cc(C(F)(C(F)(F)F)C(F)(F)F)nn2)nn1-c1ncccc1Cl` [Example 221], the chromatographic logP in series [1] (setting [6]) was 3.52. For the same compound, the pest or weed control at 100 g/ha is 100% in series [2] (100 g/ha, after 7 days); 100% in series [3] (100 g/ha, after 7 days); 80% in series [4] (100 g/ha, after 6 days).

For `CNC(=O)c1cc(C#N)cc(C)c1NC(=O)c1cc(Cn2ncc(C(F)(F)C(F)(F)C(F)(F)F)n2)nn1-c1ncccc1Cl` [Example 387], in series [1] (setting [5]), the chromatographic logP stood at 3.39. Further, the pest or weed control at 100 g/ha in series [2], in series [3] and in series [4] was 100% throughout.

For the compound `CNC(=O)c1cc(C#N)cc(C)c1NC(=O)c1cc(Cn2cc(C(F)(F)C(F)(F)C(F)(F)F)nn2)nn1-c1ncccc1Cl` [Example 343], in series [1] (setting [5]), the chromatographic logP worked out at 3.04. For the same compound, the pest or weed control at 100 g/ha in series [2], in series [3] and in series [4] was 100% throughout.

`Cc1cc(Cl)cc(C(N)=O)c1NC(=O)c1cc(Cn2cc(C(F)(F)F)nn2)nn1-c1ncccc1Cl` [Example 192]: the chromatographic logP in series [1] stood at 2.44. Further, the pest or weed control at 100 g/ha was 100% in series [2] (100 g/ha, after 7 days); 100% in series [3] (100 g/ha, after 7 days); 100% in series [4] (100 g/ha, after 6 days).

In the case of `Cc1cc(C#N)cc(C(=O)NCC2CC2)c1NC(=O)c1cc(Cn2ncc(C(F)(F)F)n2)nn1-c1ncccc1Cl` [Example 130], in series [1], the chromatographic logP turned out to be 3.17. For the same compound, the pest or weed control at 100 g/ha in series [2] (100 g/ha, after 7 days) is 100%; in series [3] (100 g/ha, after 7 days), 100%; in series [4] (100 g/ha, after 6 days), 100%.

As for `CNC(=O)c1cc(C#N)cc(C)c1NC(=O)c1cc(Cn2ncc(C(F)(F)F)n2)nn1-c1ncccc1Br` [Example 9], the chromatographic logP in series [1] (setting [6]) was determined as 2.33. Further, the pest or weed control at 100 g/ha in series [2] (100 g/ha, after 7 days) came out at 100%; in series [3] (100 g/ha, after 7 days), 100%; in series [4] (100 g/ha, after 6 days), 100%.

In the case of `CNC(=O)c1cc(I)cc(C)c1NC(=O)c1cc(Cn2ncc(C(F)(F)C(F)(F)F)n2)nn1-c1ncccc1Cl` [Example 358], the chromatographic logP in series [1] was determined as 3.64. For the same compound, the pest or weed control at 100 g/ha is 100% in series [2] (100 g/ha, after 7 days); 100% in series [3] (100 g/ha, after 7 days); 80% in series [4] (100 g/ha, after 6 days).

On to `CSC[C@H](C)NC(=O)c1cc(I)cc(C)c1NC(=O)c1cc(Cn2cc(C(F)(C(F)(F)F)C(F)(F)F)nn2)nn1-c1ncccc1Cl` [Example 238], for which the chromatographic logP in series [1] (setting [6]) came out at 4.26. Besides, the pest or weed control at 100 g/ha in series [2] (100 g/ha, after 7 days) turned out to be 100%; in series [3] (100 g/ha, after 7 days), 100%; in series [4] (100 g/ha, after 6 days), 100%.
